Test results: patent US20250263459A1, “STABILIZED PACAP PEPTIDE” (SENJU PHARMACEUTICAL CO., LTD., priority 2019, published 2025)
Non-standard residues stand in square brackets, D forms with d. Residues, ends and D or L forms follow the SMILES beside them. ξ: configuration not given here. *: point of attachment. Ala(1H-tetrazol-5-yl) = N[C@@H](Cc1nnn[nH]1)C(=O)O; ξAla(tetrazol-5-yl) = NC(Cc1nnn[nH]1)C(=O)O; Isobutyryl = CC(C)C(=O)*; Nle = CCCC[C@H](N)C(=O)O; Butyryl = CCCC(=O)*

Experiments:
[1] = Stability test 1: survival rate of peptide in phosphate buffer (pH 7.0) after storage, HPLC; type: physicochemical; conditions: 100 μM peptide
How it was run: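 Peptide solutions at 100 μM in phosphate buffer were stored at 40° C. for 1 week to 2 months depending on peptide. Remaining peptide was measured by reverse-phase HPLC peak area against an unstored standard, with survival rate also corrected for water loss through the container from weighing before and after storage.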

[2] = as above; type: physicochemical; conditions: 100 μM peptide, 0.1% phosphate buffer pH 7.0, head prints 80° C., 8 weeks (Table 4)
VPAC1 receptor = biological target: T1, VPAC1 receptor (Homo sapiens, UniProt P32241); assay: cAMP assay in CHO-K1 cells, VPAC1 receptor high-expressing cell line; type: cell-based; conditions: 30 minutes incubation
T1 construct: host or cells: CHO-K1
T1 sequence (P32241 31-457): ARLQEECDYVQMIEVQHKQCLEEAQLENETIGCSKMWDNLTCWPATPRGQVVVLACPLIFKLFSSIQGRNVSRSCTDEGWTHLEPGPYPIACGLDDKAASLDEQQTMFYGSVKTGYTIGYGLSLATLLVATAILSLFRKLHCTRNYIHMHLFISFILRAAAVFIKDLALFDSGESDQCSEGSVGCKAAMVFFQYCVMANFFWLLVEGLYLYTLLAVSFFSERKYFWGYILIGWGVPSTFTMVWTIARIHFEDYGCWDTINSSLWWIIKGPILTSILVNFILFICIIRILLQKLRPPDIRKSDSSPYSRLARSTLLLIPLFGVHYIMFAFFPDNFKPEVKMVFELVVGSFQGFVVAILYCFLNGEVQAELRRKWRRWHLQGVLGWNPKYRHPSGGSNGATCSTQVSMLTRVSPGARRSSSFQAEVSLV
Protocol: The cells were cultured for 18 to 24 hours at 37° C. in a 5% CO2 incubator, adhering the cells to the plate. […] A 5-fold dilution series was then prepared with the same Cell assay buffer and used in an assay. The cAMP assay was carried out using a Hit Hunter cAMP Assay for Biologics kit (product of DiscoveRx, Cat. No. 90-0075LM25), according to the included kit instructions. […] Next, the culture medium was removed from the CHO-K1 cell culture plate, washing was performed with PBS, and the peptide-cAMP antibody liquid mixtures were added to the cells and incubated for 30 minutes under a 5% CO2 atmosphere at 37° C. A working detection solution was then added and the culture plate was shielded from light with aluminum foil and incubated at 25° C. for 1 hour. After incubation, Solution A was added and the culture plate was shielded from light with aluminum foil and then incubated at 25° C. for 3 hours. […] The obtained value for the Relative Luminescence Unit (RLU) was analyzed with GraphPad Prism Ver 6.05 (product of Graph Pad) and the EC50 value was calculated for each peptide.

[3] = Stability test 1, sample preparation 5: survival rate of peptide in Tris buffer (pH 7.0) after storage, HPLC; type: physicochemical; conditions: 100 μM peptide; for survival rate after correction for water, 40° C. 4 week / survival rate after correction for water, 40° C. 8 week: Tris buffer pH 7.0, 40° C.; for survival rate after correction for water, 40° C. 4 week: 4 weeks (Table 13); for survival rate after correction for water, 40° C. 8 week: 8 weeks (Table 13); for survival rate after correction for water, 60° C. 1 week / survival rate after correction for water, 60° C. 2 week: Tris buffer pH 7.0, 60° C.; for survival rate after correction for water, 60° C. 1 week: 1 week (Table 13); for survival rate after correction for water, 60° C. 2 week: 2 weeks (Table 13)
Protocol: The peak area value for the peptide in the chromatogram was calculated, and the survival rate (survival rate before correction for water) was calculated using formula (2). The survival rate after correction for water was also calculated from the survival rate before correction for water using formula (3) to take into account the permeability of the container.
The prepared peptide solutions were incubated for 4 weeks or 8 weeks in a 40° C. thermostatic bath, and for one week or 2 weeks in a thermostatic bath at 60° C., to obtain stored samples.
The following gradient time was used only for peptide 30.

[4] = 100 μM peptide, Tris buffer pH 7.0, 60° C.
Protocol: The solution was filtered with a Chromatdisk (product of Merck Millipore, Millex-GV, 0.22 μm). The filtrate was diluted to 100 μM with Tris buffer (pH 7.0) and dispensed into a tube (Protein LoBind Tube by Eppendorf Co.). The prepared peptide solutions were incubated for 1 week or 2 weeks in a 60° C. thermostatic bath to obtain stored samples. A simultaneously prepared sample among the peptide solutions that was not stored was used as a standard sample (initial sample). The standard sample and the stored samples were stored at −30° C. until sample analysis.
• Column: XSelect CSH C18 by Waters Co., 5 μm, 4.6×250 mm • Guard column: XSelect CSH C18 by Waters Co., 5 μm, 4.6×20 mm Guard Cartridge • Detection wavelength: 220 nm • Mobile phase A: 0.1% formic acid aqueous solution • Mobile phase B: 0.1% acetonitrile formate solution • Measuring time: 20 minutes • Measuring sample injection rate: 50 μL • Flow rate: 1.0 mL/min • Column temperature: 40° C. • Sample cooler: 25° C. • Mobile phase delivery: The mixing ratio of mobile phase A and mobile phase B was varied as shown in Table 14 for linear concentration gradient control.

[5] = 0.1% phosphate buffer pH 7.0, 40° C., 4 weeks (Table 4)
[6] = phosphate buffer pH 7.0, 40° C., 4 weeks (Table 8)

SMILES	EC50 (VPAC1 receptor) [pM]	survival rate after correction for water, 40° C. 4 week [1, 5] [%]	survival rate after correction for water, 80° C. 8 week [2] [%]	survival rate after correction for water, 40° C. 4 week [1, 6] [%]	survival rate after correction for water, 40° C. 4 week [3] [%]	survival rate after correction for water, 40° C. 8 week [3] [%]	survival rate after correction for water, 60° C. 1 week [3] [%]	survival rate after correction for water, 60° C. 2 week [3] [%]	other results
CC[C@H](C)[C@H](NC(=O)CNC(=O)C(Cc1nnn[nH]1)NC(=O)[C@H](CO)NC(=O)[C@@H](N)Cc1c[nH]cn1)C(=O)N[C@@H](Cc1ccccc1)C(=O)N[C@H](C(=O)NC(Cc1nnn[nH]1)C(=O)N[C@@H](CO)C(=O)N[C@@H](Cc1ccc(O)cc1)C(=O)N[C@@H](CO)C(=O)N[C@@H](CCCNC(=N)N)C(=O)N[C@@H](Cc1ccc(O)cc1)C(=O)N[C@@H](CCCNC(=N)N)C(=O)N[C@@H](CCCCN)C(=O)N[C@@H](CCC(N)=O)C(=O)N[C@@H](CCSC)C(=O)N[C@@H](C)C(=O)N[C@H](C(=O)N[C@@H](CCCCN)C(=O)N[C@@H](CCCCN)C(=O)N[C@@H](Cc1ccc(O)cc1)C(=O)N[C@@H](CC(C)C)C(=O)N[C@@H](C)C(N)=O)C(C)C)[C@@H](C)O (some centres unmarked) [Peptide 8, HSTzGI FTTzSY SRYRK QMAVK KYLA] (H-HS[ξAla(tetrazol-5-yl)]GIFT[ξAla(tetrazol-5-yl)]SYSRYRKQMAVKKYLA-NH2)	–	95.1	84.1	–	–	–	–	–	–
CC[C@H](C)[C@H](NC(=O)CNC(=O)C(Cc1nnn[nH]1)NC(=O)[C@H](CO)NC(=O)[C@@H](N)Cc1c[nH]cn1)C(=O)N[C@@H](Cc1ccccc1)C(=O)N[C@H](C(=O)NC(Cc1nnn[nH]1)C(=O)N[C@@H](CO)C(=O)N[C@@H](Cc1ccc(O)cc1)C(=O)N[C@@H](CO)C(=O)N[C@@H](CCCNC(=N)N)C(=O)N[C@@H](Cc1ccc(O)cc1)C(=O)N[C@@H](CCCNC(=N)N)C(=O)N[C@@H](CCCCN)C(=O)N[C@@H](CCC(N)=O)C(=O)N[C@@H](CCSC)C(=O)N[C@@H](C)C(=O)N[C@H](C(=O)N[C@@H](CCCCN)C(=O)N[C@@H](CCCCN)C(=O)N[C@@H](Cc1ccc(O)cc1)C(=O)N[C@@H](CC(C)C)C(=O)N[C@@H](C)C(=O)N[C@@H](C)C(=O)N[C@H](C(N)=O)C(C)C)C(C)C)[C@@H](C)O (some centres unmarked) [Peptide 9, HSTzGI FTTzSY SRYRK QMAVK KYLAA V] (H-HS[ξAla(tetrazol-5-yl)]GIFT[ξAla(tetrazol-5-yl)]SYSRYRKQMAVKKYLAAV-NH2)	–	92.4	83.3	–	–	–	–	–	–
CC[C@H](C)[C@H](NC(=O)CNC(=O)[C@H](CC(=O)O)NC(=O)[C@H](CO)NC(=O)[C@@H](N)Cc1c[nH]cn1)C(=O)N[C@@H](Cc1ccccc1)C(=O)N[C@H](C(=O)N[C@@H](CC(=O)O)C(=O)N[C@@H](CO)C(=O)N[C@@H](Cc1ccc(O)cc1)C(=O)N[C@@H](CO)C(=O)N[C@@H](CCCNC(=N)N)C(=O)N[C@@H](Cc1ccc(O)cc1)C(=O)N[C@@H](CCCNC(=N)N)C(=O)N[C@@H](CCCCN)C(=O)N[C@@H](CCC(N)=O)C(=O)N[C@@H](CCSC)C(=O)N[C@@H](C)C(=O)N[C@H](C(=O)N[C@@H](CCCCN)C(=O)N[C@@H](CCCCN)C(=O)N[C@@H](Cc1ccc(O)cc1)C(=O)N[C@@H](CC(C)C)C(=O)N[C@@H](C)C(=O)N[C@@H](C)C(=O)N[C@H](C(=O)N[C@@H](CC(C)C)C(N)=O)C(C)C)C(C)C)[C@@H](C)O [Reference Example 1, reference compound]	–	37.4	21.3	23.9	37.9	15.6	26.4	14.6	survival rate after correction for water, 40° C. 1 week ([1]; phosphate buffer pH 7.0, 40° C., 1 week (Table 10)): 74.9%; survival rate after correction for water, 40° C. 2 week ([1]; phosphate buffer pH 7.0, 40° C., 2 weeks (Table 6)): 64.3%; survival rate after correction for water, 40° C. 4 week ([1]; phosphate buffer pH 7.0, 40° C., 4 weeks (Table 10)): 33.0%; survival rate after correction for water, 40° C. 8 week ([1]; phosphate buffer pH 7.0, 40° C., 8 weeks (Table 6)): 23.7%; survival rate after correction for water, 60° C. 1 week preservation ([4]; 1 week): 26.6%; survival rate after correction for water, 60° C. 2 weeks preservation ([4]; 2 weeks): 15.8%

Now from value to compound, other results behind:

EC50 (VPAC1 receptor) [pM]	SMILES	survival rate after correction for water, 40° C. 4 week [1, 5] [%]	survival rate after correction for water, 80° C. 8 week [2] [%]	survival rate after correction for water, 40° C. 4 week [1, 6] [%]	survival rate after correction for water, 40° C. 4 week [3] [%]	survival rate after correction for water, 40° C. 8 week [3] [%]	survival rate after correction for water, 60° C. 1 week [3] [%]	survival rate after correction for water, 60° C. 2 week [3] [%]	other results
69	CCCC[C@H](NC(=O)[C@H](CCC(N)=O)NC(=O)[C@H](CCCCN)NC(=O)[C@H](CCCNC(=N)N)NC(=O)[C@H](Cc1ccc(O)cc1)NC(=O)[C@H](CCCNC(=N)N)NC(=O)[C@H](CO)NC(=O)[C@H](Cc1ccc(O)cc1)NC(=O)[C@H](CO)NC(=O)[C@H](Cc1nnn[nH]1)NC(=O)[C@@H](NC(=O)[C@H](Cc1ccccc1)NC(=O)[C@@H](NC(=O)CNC(=O)[C@H](Cc1nnn[nH]1)NC(=O)[C@H](CO)NC(=O)[C@H](Cc1c[nH]cn1)NC(=O)CCC)[C@@H](C)CC)[C@@H](C)O)C(=O)N[C@@H](C)C(=O)N[C@H](C(=O)N[C@@H](CCCCN)C(=O)N[C@@H](CCCCN)C(=O)N[C@@H](Cc1ccc(O)cc1)C(=O)N[C@@H](CC(C)C)C(=O)N[C@@H](C)C(=O)N[C@@H](C)C(=O)N[C@H](C(=O)N[C@@H](CC(C)C)C(N)=O)C(C)C)C(C)C [Peptide 18] (Butyryl-HS[Ala(1H-tetrazol-5-yl)]GIFT[Ala(1H-tetrazol-5-yl)]SYSRYRKQ[Nle]AVKKYLAAVL-NH2)	–	–	65.1	–	–	–	–	–
69	CCCC[C@H](NC(=O)[C@H](CCC(N)=O)NC(=O)[C@H](CCCCN)NC(=O)[C@H](CCCNC(=N)N)NC(=O)[C@H](Cc1ccc(O)cc1)NC(=O)[C@H](CCCNC(=N)N)NC(=O)[C@H](CO)NC(=O)[C@H](Cc1ccc(O)cc1)NC(=O)[C@H](CO)NC(=O)[C@H](Cc1nnn[nH]1)NC(=O)[C@@H](NC(=O)[C@H](Cc1ccccc1)NC(=O)[C@@H](NC(=O)CNC(=O)[C@H](Cc1nnn[nH]1)NC(=O)[C@H](CO)NC(=O)[C@H](Cc1c[nH]cn1)NC(=O)C(C)C)[C@@H](C)CC)[C@@H](C)O)C(=O)N[C@@H](C)C(=O)N[C@H](C(=O)N[C@@H](CCCCN)C(=O)N[C@@H](CCCCN)C(=O)N[C@@H](Cc1ccc(O)cc1)C(=O)N[C@@H](CC(C)C)C(=O)N[C@@H](C)C(=O)N[C@@H](C)C(=O)N[C@H](C(=O)N[C@@H](CC(C)C)C(N)=O)C(C)C)C(C)C [Peptide 19, HSTzGI FTTzSY SRYRK QNIAVK KYLAA VL] (Isobutyryl-HS[Ala(1H-tetrazol-5-yl)]GIFT[Ala(1H-tetrazol-5-yl)]SYSRYRKQ[Nle]AVKKYLAAVL-NH2)	–	–	68.7	–	–	–	–	–
111	CC[C@H](C)[C@H](NC(=O)CNC(=O)[C@H](Cc1nnn[nH]1)NC(=O)[C@H](CO)NC(=O)[C@H](Cc1c[nH]cn1)NC(C)=O)C(=O)N[C@@H](Cc1ccccc1)C(=O)N[C@@H](C)C(=O)N[C@@H](Cc1nnn[nH]1)C(=O)N[C@@H](C)C(=O)N[C@@H](Cc1ccc(O)cc1)C(=O)N[C@@H](CO)C(=O)N[C@@H](CCCNC(=N)N)C(=O)N[C@@H](Cc1ccc(O)cc1)C(=O)N[C@@H](CCCNC(=N)N)C(=O)N[C@@H](CCCCN)C(=O)N[C@@H](CCC(N)=O)C(=O)N[C@@H](CC(C)C)C(=O)N[C@@H](C)C(=O)N[C@H](C(=O)N[C@@H](CCCCN)C(=O)N[C@@H](CCCCN)C(=O)N[C@@H](Cc1ccc(O)cc1)C(=O)N[C@@H](CC(C)C)C(=O)N[C@@H](C)C(=O)N[C@@H](C)C(=O)N[C@H](C(=O)N[C@@H](CC(C)C)C(N)=O)C(C)C)C(C)C [Peptide 27, HSTzGI FATzAY SRYRK QLAVK KYLAA VL] (Ac-HS[Ala(1H-tetrazol-5-yl)]GIFA[Ala(1H-tetrazol-5-yl)]AYSRYRKQLAVKKYLAAVL-NH2)	–	–	–	90.9	84.3	97.3	95.5	–
